The values that follow come from article PMC7750480, “A hybrid approach reveals the allosteric regulation of GTP cyclohydrolase I” (Proceedings of the National Academy of Sciences of the …, 2020).

Common to all, as to format: binding
Experiment [1] has as its target T1, GCH1 (Homo sapiens, UniProt P30793).
T1 construct: The hGCH1 (42-250, N-terminal 6xHis Tag and TEV cleavage site); 6xHis (N); TEV cleavage site (N); made in house; host or cells: E. coli BL21(DE3)
T1 sequence (P30793 42-250): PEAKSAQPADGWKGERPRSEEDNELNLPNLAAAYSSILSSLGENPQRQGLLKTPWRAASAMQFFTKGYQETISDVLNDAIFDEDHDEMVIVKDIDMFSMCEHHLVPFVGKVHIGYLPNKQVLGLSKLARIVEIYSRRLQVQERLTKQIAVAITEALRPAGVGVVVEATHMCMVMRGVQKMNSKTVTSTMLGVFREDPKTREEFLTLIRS
Kind of experiment: STD-NMR titration of 7-deaza-GTP to GCH1 (initial slopes of build-up curves). An excerpt:
To shed more light onto the mechanism of BH4-induced inhibition of GCH1, we used saturation transfer difference (STD) NMR spectroscopy to study binding of the substrate analog 7-deaza-GTP to GCH1. STD-NMR can be used to determine the KD of ligands (feasible in the range between 10^−2 and 10^−6 M) and allows the making of qualitative statements about the change of ligand binding kinetics ([28]–[31]). STD-NMR experiments were based on a titration of 7-deaza-GTP to GCH1 in the presence or absence of BH4. We measured a series of STD build-up curves (i.e., STD effects at a constant ligand concentration but increasing saturation times) at each 7-deaza-GTP concentration for the protons H7 and H1′ of the substrate analog. From the concentration dependence of the initial build-up slopes, the dissociation constant as well as the maximum STD amplification for the monitored proton signal can be derived (Fig. 6 A and B).
Fig. 6. KD determination using initial slopes from STD-NMR build-up curves. (A) For each ligand concentration, a set of measurements was recorded applying different saturation times (tsat). To obtain STD-AFmax values and the saturation rate constants ksat from STD-NMR build-up curves, experimental STD-AF values were fit to a rising exponential: STD-AF = STD-AFmax (1−exp (−ksat tsat)). From the fitting parameters, initial build-up slopes (tsat = 0) were calculated: STD-AF0 = STD-AFmax ksat. These STD-AF0 values were plotted against the ligand concentration, yielding a binding isotherm from which KD can be derived by fitting the Langmuir binding model: STD-AF0 = Amax/(1+(KD/c)). Amax is a scaling factor representing the maximum STD amplification. Two different 7-deaza-GTP protons (H1′ and H7) were monitored in these experiments. (C) Assignment of relevant protons on structural formula of 7-deaza-GTP. TEXT PRINTED IN THE PICTURE: (B) H1': KD: 52 (5mM BH4); Amax: 732 (5mM BH4); KD: 326 (no BH4); Amax: 177 (no BH4) | (B) H7: KD: 157 (5mM BH4); Amax: 729 (5mM BH4); KD: 977 (no BH4); Amax: 400 (no BH4) DOUBTS OF THE COPYIST ABOUT THIS PICTURE: Panel B: the row labels H1' and H7 are monitored protons of one ligand (printed in panel A as 7da-GTP / 7-Deaza-GTP), not separate compounds; they are used as labels as printed / Panel B: no unit is printed for KD or Amax in the table
All NMR experiments were performed at 25 °C on a Bruker HD 600-MHz spectrometer equipped with a cryogenic QCI probe head. Deuterium oxide (D2O) NMR buffer solution containing 40 mM of a NaH2PO4 and Na2HPO4 mixture with 150 mM sodium chloride (NaCl) was adjusted to a pD of 7.4 (corrected). Suppression of broad protein resonances was achieved by a T1ρ filter ([60]), formed by a 50-ms spin lock pulse. STD-NMR spectra were acquired with WATERGATE water suppression using W5 hard pulse trains ([61]). Difference spectrum ligand signal intensities were divided by corresponding off-resonance spectrum signal intensities, resulting in relative STD intensity values. Multiplication by ligand excess factor yielded STD amplification factor (STD-AF) values ([28]). For selective protein signal saturation, a cascade of Gaussian-shaped pulses was applied. Series of measurements with different total saturation times (tsat) covering a range between 1.2 and 7.2 s were recorded for extraction of initial slopes from STD-AF build-up plots. An additional relaxation delay varying from 2.8 s to 0.4 s was inserted before the saturation cascade to keep constant the total time per scan. On-resonance irradiation was set to 0.16 parts per million (ppm), and off-resonance irradiation was set to 66 ppm. Depending on the ligand concentration, 64 to 1,024 scans were acquired for the STD experiments (32 to 512 scans each for on- and off-resonance). Considering the STD-AF to be directly proportional to the fraction of bound receptor gives rise to a hyperbolic dose–response curve (specific one-site binding model) when STD-AF values are measured with different ligand concentrations ([31]). […]

For experiment [2], the target named is T1, GCH1. Kind of experiment: protein-detected NMR titration (1H,13C HMQC), wild-type GCH1. The procedure: (§1) Finally, the F122A mutant was generated and characterized to check whether the structurally observed, F122-dependent closure of the active site plays a key role in GCH1 function. […] The fitted dissociation constant KD of GCH1 for the nonhydrolyzable GTP analog 7-deaza-GTP was determined by protein-detected NMR titrations. […] Therefore, the missing enzyme activity of the F122 mutant cannot be explained by reduced affinity to the substrate and must have other underlying causes.
(§2) Perdeuterated protein with selectively labeled protonated and ^13C-labeled alanine, isoleucine, leucine, and valine methyl groups {Ala^β-[^13CH3]; Ile^δ1-[^13CH3]; Leu^δ,Val^γ-[^12CD3/^13CH3]} was expressed as described in the literature ([64]). […] All spectra were recorded on a Bruker Avance III 800 MHz NMR spectrometer equipped with a cryogenic triple-resonance probe at 298 K. Fifty micromolars perdeuterated GCH1 monomer with selectively labeled methyl groups was dissolved in 1× PBS in D2O. The ^1H,^13C-HMQC spectra of the protein were recorded with increasing concentration of the nonhydrolyzable GTP analog 7-deaza-GTP up to a final concentration of 3.5 mM. Spectra were processed with Bruker Topspin 3.5 and analyzed using CcpNmr ([65]) analysis version 2. Chemical shift perturbation (CSP) was calculated using Eq. 1 and the binding curve was fitted using Eq. 2. […]

A further experiment addresses T2, GCH1 F122A mutant (Homo sapiens, UniProt P30793, F122A).
T2 construct: The hGCH1 (42-250, N-terminal 6xHis Tag and TEV cleavage site); 6xHis (N); TEV cleavage site (N); made in house; host or cells: E. coli BL21(DE3)
T2 sequence (P30793 42-250 F122A): T1 sequence (P30793 42-250) with F81A
Kind of experiment: protein-detected NMR titration (1H,13C HMQC), F122A mutant. The procedure: as §1, §2

Positions count from the first letter of the chain named.

With `Nc1nc2c(ccn2C2OC(COP(=O)(O)OP(=O)(O)OP(=O)(O)O)C(O)C2O)c(=O)[nH]1` (stereo not shown) [7-deaza-GTP], the “increase of maximum STD amplification (Amax), factor” value at GCH1 [1] (BH4-inhibited GCH1 compared to the uninhibited enzyme) was “about 3”. Moreover, the “factor of tighter binding to the allosterically inhibited GCH1” value on GCH1 [1] (BH4-inhibited vs uninhibited GCH1) was approximately 6. The Kd (in general, the concentration at which binding is half-saturated) was 52 µM at GCH1 [1] (KD (STD-NMR, initial slopes), proton H1', 5mM BH4); 326 µM at GCH1 [1] (KD (STD-NMR, initial slopes), proton H1', no BH4); 157 µM at GCH1 [1] (KD (STD-NMR, initial slopes), proton H7, 5mM BH4); 977 µM at GCH1 [1] (KD (STD-NMR, initial slopes), proton H7, no BH4); approximately 100 µM on GCH1 [1] (KD, BH4-bound inhibited hGCH1); approximately 600 µM on GCH1 [1] (KD, free, active hGCH1). Further, the dissociation constant (Kd) on GCH1 [2] worked out at 798 µM; on GCH1 F122A mutant it was 669 µM.
